Data taken from the Kinase Knowledgebase extract (Sharma et al. 2016).

Tests used:
CDK2 = CDK2 (UniProt P24941); assay: Enzyme Assay
EGFR = EGFR (UniProt P00533)
Chain of EGFR (P00533 whole entry, looked up): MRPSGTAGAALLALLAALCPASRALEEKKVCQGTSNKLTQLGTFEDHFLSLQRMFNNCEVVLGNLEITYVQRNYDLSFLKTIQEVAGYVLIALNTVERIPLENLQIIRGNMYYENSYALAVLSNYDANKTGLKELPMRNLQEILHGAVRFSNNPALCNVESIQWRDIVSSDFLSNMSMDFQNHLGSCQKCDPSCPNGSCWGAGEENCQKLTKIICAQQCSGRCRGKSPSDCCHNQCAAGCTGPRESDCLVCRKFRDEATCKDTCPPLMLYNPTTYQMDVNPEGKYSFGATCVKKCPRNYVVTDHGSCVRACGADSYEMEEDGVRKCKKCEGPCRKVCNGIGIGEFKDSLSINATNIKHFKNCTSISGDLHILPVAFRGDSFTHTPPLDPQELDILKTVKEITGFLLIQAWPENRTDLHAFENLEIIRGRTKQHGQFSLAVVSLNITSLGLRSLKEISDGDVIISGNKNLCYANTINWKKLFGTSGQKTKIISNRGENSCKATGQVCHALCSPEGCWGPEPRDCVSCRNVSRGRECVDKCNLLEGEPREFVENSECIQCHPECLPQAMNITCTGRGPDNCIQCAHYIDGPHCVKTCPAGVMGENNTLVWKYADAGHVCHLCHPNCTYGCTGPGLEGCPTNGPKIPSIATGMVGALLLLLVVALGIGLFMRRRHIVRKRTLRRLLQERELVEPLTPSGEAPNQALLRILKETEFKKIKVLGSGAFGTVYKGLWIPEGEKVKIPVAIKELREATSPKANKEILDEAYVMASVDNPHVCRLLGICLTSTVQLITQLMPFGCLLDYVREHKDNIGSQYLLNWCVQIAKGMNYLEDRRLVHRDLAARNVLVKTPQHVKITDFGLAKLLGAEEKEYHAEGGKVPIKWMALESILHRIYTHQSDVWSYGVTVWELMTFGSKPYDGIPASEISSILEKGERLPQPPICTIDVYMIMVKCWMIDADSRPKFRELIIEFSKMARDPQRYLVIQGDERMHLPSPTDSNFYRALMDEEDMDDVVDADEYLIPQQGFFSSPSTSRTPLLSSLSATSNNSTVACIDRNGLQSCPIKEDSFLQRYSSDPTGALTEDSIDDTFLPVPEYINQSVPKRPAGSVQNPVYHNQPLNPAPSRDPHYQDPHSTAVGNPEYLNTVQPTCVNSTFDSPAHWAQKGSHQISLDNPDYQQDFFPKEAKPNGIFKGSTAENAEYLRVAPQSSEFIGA

Row | Compound | IC50 (CDK2) [µM] | IC50 (EGFR) [µM]
1 | Cc1nc(N2CCN(C(=O)OC(C)(C)C)CC2)nc2[nH]c(-c3c(NC[C@@H](O)c4cccc(Cl)c4)cc[nH]c3=O)nc12 | < 25 | < 25
2 | Cc1nc(N2CCN(Cc3nccn3C)CC2)nc2[nH]c(-c3c(NC[C@@H](O)c4cccc(Cl)c4)cc[nH]c3=O)nc12 | < 25 | < 25
3 | Cc1nc(N2CCN(Cc3ccccn3)CC2)nc2[nH]c(-c3c(NC[C@@H](O)c4cccc(Cl)c4)cc[nH]c3=O)nc12 | < 25 | < 25
4 | COc1ccc(C(O)CNc2cc[nH]c(=O)c2-c2nc3cnccc3[nH]2)cc1Br (configuration not stated) | < 25 | < 25
5 | COc1ccc([C@H](O)CNc2cc[nH]c(=O)c2-c2nc3cc4cn[nH]c4cc3[nH]2)cc1Br | < 25 | < 25
6 | Cc1nc(N2CCOCC2)nc2[nH]c(-c3c(NC[C@@H](O)c4cccc(Cl)c4)cc[nH]c3=O)nc12 | < 25 | < 25
7 | O=c1[nH]ccc(NC[C@@H](O)c2cccc(Br)c2)c1-c1nc2cc3cn[nH]c3cc2[nH]1 | < 25 | < 25
8 | Cc1nc(N2CCN(COCc3ccccc3)CC2)nc2[nH]c(-c3c(NC[C@@H](O)c4cccc(Cl)c4)cc[nH]c3=O)nc12 | < 25 | < 25
9 | CCC(C)CN1CCN(c2nc(C)c3nc(-c4c(NC[C@@H](O)c5cccc(Cl)c5)cc[nH]c4=O)[nH]c3n2)CC1 (some centres not stated) | < 25 | < 25
10 | Cc1nc(N2CCNCC2)nc2[nH]c(-c3c(NC[C@@H](O)c4cccc(Cl)c4)cc[nH]c3=O)nc12 | < 25 | < 25
11 | Cc1nc(N2CCN(Cc3ncc[nH]3)CC2)nc2[nH]c(-c3c(NC[C@@H](O)c4cccc(Cl)c4)cc[nH]c3=O)nc12 | < 25 | < 25
12 | Cc1nc(N2CCN(Cc3cccc(F)c3)CC2)nc2[nH]c(-c3c(NC[C@@H](O)c4cccc(Cl)c4)cc[nH]c3=O)nc12 | < 25 | < 25
13 | O=c1[nH]c2cc3nc(-c4c(NC[C@@H](O)c5cccc(Cl)c5)cc[nH]c4=O)[nH]c3cc2[nH]1 | < 25 | < 25
14 | CCOC(=O)C1CC1CN1CCN(c2nc(C)c3nc(-c4c(NC[C@@H](O)c5cccc(Cl)c5)cc[nH]c4=O)[nH]c3n2)CC1 (some centres not stated) | < 25 | < 25
15 | Cc1nc(N2CCN(CC3CC3)CC2)nc2[nH]c(-c3c(NC[C@@H](O)c4cccc(Cl)c4)cc[nH]c3=O)nc12 | < 25 | < 25
16 | CCN1CCN(c2nc(C)c3nc(-c4c(NC[C@@H](O)c5cccc(Cl)c5)cc[nH]c4=O)[nH]c3n2)CC1 | < 25 | < 25
17 | Cc1nc(N2CCN(Cc3cccn3C)CC2)nc2[nH]c(-c3c(NC[C@@H](O)c4cccc(Cl)c4)cc[nH]c3=O)nc12 | < 25 | < 25
18 | O=c1[nH]ccc(NCC(O)c2cccc(Br)c2)c1-c1nc2cnccc2[nH]1 (configuration not stated) | < 25 | < 25
19 | O=c1[nH]ccc(NC[C@@H](O)c2cccc(Cl)c2)c1-c1nc2cc3cn[nH]c3cc2[nH]1 | < 25 | < 25
20 | O=c1[nH]ccc(NCC(O)c2cccc(Cl)c2)c1-c1nc2cnccc2[nH]1 (configuration not stated) | < 25 | < 25
21 | Cc1nc(N2CCN(Cc3nccs3)CC2)nc2[nH]c(-c3c(NC[C@@H](O)c4cccc(Cl)c4)cc[nH]c3=O)nc12 | < 25 | < 25
